Our source for the GI50 and TGI values is PubChem BioAssay (NCI).

The structures appear in SMILES notation.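 Five compound concentrations were applied to cells in 96-well plates for 48 hours; endpoints were derived by simple linear interpolation of the resulting dose-response curve. At the GI50, growth is halved. TGI denotes the concentration required for complete inhibition of growth.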

What all share (assay): NCI anticancer screen, dose series, 48 h
The subject of assay [1] is NCI-H460 lung.
Assay [2] relates to OVCAR-3 ovarian.
Assay [3] concerns A498 renal.
Assay [4] has as its system SNB-19 CNS.
Assay [5] deals with HOP-92 NSCLC.
Assay [6] concerns NCI-H23 lung.
Assay [7] has as its system SF-295 CNS.
Assay [8] deals with SK-MEL-28 melanoma.
Assay [9] relates to A549 NSCLC.
Assay [10] deals with OVCAR-8 ovarian.

As for `COc1cc(C2CC(c3cccc(Nc4ccncc4)c3)=NN2c2ccc(Cl)cc2)cc(OC)c1OC` (stereo not given), the GI50 was 1.69 µM in assay [1]; 1.61 µM in assay [2]; 1.32 µM in assay [3]; 1.55 µM in [4]; 1.25 µM in assay [5]; 1.67 µM in [6]. Moreover, the GI50 in assay [7] and in [8] was 1.68 µM in each case. In addition, the TGI in assay [1] came out at 3.13 µM; in assay [2], 3.03 µM; in assay [3], 6.26 µM; in assay [4], 2.91 µM; in assay [5] it was 2.7 µM; in assay [6] it was 3.28 µM. The TGI came out at 3.05 µM in [7] and 3.12 µM in assay [8].

For `Nc1ccccc1N=Cc1cc2cc([N+](=O)[O-])ccc2s1`, the TGI in assay [1] was 47.5 µM; in assay [2], 30.1 µM; in assay [3] it was 32.5 µM; in assay [4], 46.6 µM; in [5], 55.5 µM; in assay [6] it was over 100 µM. For the same compound, the TGI in assay [7] is over 100 µM; in assay [9], 30.9 µM; in assay [8], 57.8 µM; in [10], 45.7 µM.

Regarding `COc1cc(/C=C/C(=O)Oc2ccc(NC(C)=O)cc2)ccc1C(=O)O/C=C/c1ccccc1`, the TGI in assay [1], in assay [2], in [3], in assay [4], in assay [5] and in assay [6] was over 100 µM in each case. Moreover, the TGI in assay [7], in assay [9], in assay [8] and in assay [10] was over 100 µM each time.

Consider `CSc1ccsc1-c1sc(-c2cc(SC)c(-c3sc(-c4cc(SC)c(-c5sccc5SC)s4)cc3SC)s2)cc1SC`, for which the TGI in [1], in assay [2], in assay [3], in [4], in [5] and in [6] was over 100 µM throughout. Besides, the TGI in [7], in [9], in [8] and in [10] was over 100 µM in each case.

With `CCc1nc(N)nc(N)c1-c1ccc([N+](C)(C)C)cc1`, the TGI in assay [1], in [2], in assay [3], in [4], in [5] and in assay [6] was over 100 µM throughout. For the same compound, the TGI in [7], in [9], in assay [8] and in assay [10] was over 100 µM in each case.

On to `COc1ccc2c(C(=O)c3cn(CCN4CCOCC4)c4ccccc34)cccc2c1`, for which the TGI in [1] was over 100 µM; in assay [2], over 25.5 µM; in [3] it was over 100 µM; in [4] it was over 100 µM; in assay [5], over 100 µM; in assay [6], over 100 µM. The TGI is over 54.8 µM in assay [7], over 100 µM in assay [9], over 100 µM in assay [8] and over 100 µM in assay [10].

Take `CCSC1=N/C(=C\c2ccc(N(C)C)cc2)C(Cl)=N1`: the TGI in assay [1], in assay [2], in assay [3], in assay [4], in assay [5] and in assay [6] was over 100 µM throughout. Moreover, the TGI in assay [7], in assay [9], in assay [8] and in [10] was over 100 µM each time.

For the compound `COC(C)(C)OCCN1CCN(CCN2C3=C(C=C(C(C)=O)C3)Sc3ccccc32)CC1`, the TGI in [1] stood at 35.5 µM; in assay [2], 45.8 µM; in assay [3] it was 34 µM; in assay [4], 93.3 µM; in assay [5], 92.9 µM; in [6], 73.5 µM. The TGI worked out at 36.7 µM in assay [7], 96.7 µM in assay [9], 32.9 µM in assay [8] and 42.1 µM in assay [10].

Regarding `Oc1cn(-c2ccc(Cl)cc2)nc1-c1n[nH]c(=S)n1-c1ccccc1`, the TGI in [1] was 59.4 µM; in assay [2], 9.4 µM; in assay [3], 37.5 µM; in assay [4] it was over 100 µM; in [5], over 100 µM; in assay [6], 23.9 µM. Further, the TGI was 19.8 µM in assay [7], 35.6 µM in assay [9], over 100 µM in assay [8] and 34.6 µM in assay [10].

As to `Cc1c2cccc-2c(OCCO)cc2c3ccccc3n(C)c12`, the TGI in assay [1] was 18.3 µM; in assay [2] it was 5.56 µM; in assay [3] it was 24 µM; in [4] it was 18.6 µM; in [5] it was 6.13 µM; in [6], over 100 µM. Also, the TGI in assay [7] is 16.9 µM; in assay [9], 15.5 µM; in assay [8], 21.4 µM; in assay [10] it was 10.1 µM.

Take `CN(C)C(=O)/C=C/c1c[nH]c(=O)[nH]c1=O`: the TGI in assay [1], in assay [2], in assay [3], in assay [4], in assay [5] and in assay [6] was over 500 µM in each case. The TGI in assay [7], in assay [9], in assay [8] and in assay [10] was over 500 µM each time.

On to `CC(=O)NNc1nc(-c2ccc([N+](=O)[O-])cc2)c(C#N)c(=O)n1C`, for which the TGI in assay [1] is over 100 µM; in assay [2], 31.4 µM; in assay [3], 75.5 µM; in [4], over 100 µM; in assay [5] it was 33.3 µM; in [6], over 100 µM. In addition, the TGI in assay [7] is over 100 µM; in assay [9], over 100 µM; in [8] it was over 100 µM; in [10], 89.3 µM.

As to `COc1ccc2c(c1)CCCN2CCCCCCCCCCN(CCC(C)C)CCC(C)C`, the TGI turned out to be 24.3 µM in assay [1]; 17.3 µM in [2]; 31 µM in assay [3]; 27.7 µM in [4]; 17 µM in assay [5]; 12.7 µM in [6]. Also, the TGI in [7] stood at 27.4 µM; in [9] it was 26.2 µM; in assay [8], 27.2 µM.

As to `Nc1n[nH]c(=O)c2c1c(I)cn2C1OC(CO)C(O)C1O` (stereo not given), the TGI in assay [1] is 14.1 µM; in assay [2], over 100 µM; in assay [3], over 100 µM; in [4], over 100 µM; in assay [5] it was 3.05 µM; in assay [6], 1.96 µM. Besides, the TGI was 9.74 µM in assay [7], over 100 µM in assay [9], 3.47 µM in assay [8] and 1.44 µM in [10].

As to `CN(C)CCNC(=O)c1cccc2ccc(-c3ccc(F)cc3)nc12`, the TGI in [1] amounted to 10.5 µM; in [2], 33.5 µM; in assay [3], 17.5 µM; in assay [4], 33.7 µM; in assay [5], 18 µM; in assay [6], 17.1 µM. In addition, the TGI was determined as 19.7 µM in [7], 17.9 µM in [9], 20.1 µM in assay [8] and 15.8 µM in assay [10].

`CC(Oc1ccc(Cl)cc1Cl)C(=O)NN1C(=O)CSC1c1ccccc1` (stereo not given): the TGI is over 100 µM in assay [1]; over 100 µM in assay [2]; over 100 µM in assay [3]; over 100 µM in assay [4]; 83.8 µM in assay [5]; over 100 µM in [6]. The TGI in assay [7], in assay [9], in assay [8] and in [10] was over 100 µM each time.
